The results in this text go back to US4939156A (priority 1987, dated 1990).

Series [1] can be described thus: in vitro. Particulars: dog, mdck.
Series [2] has as its system Vaccinia virus Lister strain. In words: organism not typed. Particulars: for IC50: 48 h, read-out: Inhibitory Concentration (IC50) which inhibited by 50% the denaturation of Virus No. 4 infested HeLa-Y cell; for Quotient of minimum denaturation concentration divided by IC50, Virus No. 4: figures in brackets, HeLa-Y cell, Vaccinia virus, 2880 min. The series is classed as cell-based.

Series [3] in a line: in vitro. The note with it: mouse, l-929 cells.
The subject of series [4] is Herpes simplex virus (HSV) Type 2 196 strain. In words: Antiviral activity, Virus No. 5 infested Vero cell. The series is classed as cell-based. Particulars: for IC50: 48 h, HSV Type 2, Vero cell, read-out: Inhibitory Concentration (IC50) which inhibited by 50% the denaturation of Virus No. 5 infested Vello cell; for Quotient of minimum denaturation concentration divided by IC50, Virus No. 5: figures in brackets, Vero cell, HSV Type 2.

Series [5] concerns vesicular stomatitis virus (VSV) New Jersey strain. In words: microbe, parasite or virus in culture. The series is classed as cell-based. The note with it: for IC50: Vesicular stomatitis virus, L929, 48 h, read-out: Inhibitory Concentration (IC50) which inhibited by 50% the denaturation of Virus No. 3 infested L-929 cell; for Quotient of minimum denaturation concentration divided by IC50, Virus No. 3: figures in brackets, L-929 cell, VSV, 2880 min.

For series [6], the system named is Influenza virus A/PR/8/34 strain. In words: Antiviral activity, Virus No. 1 infested MDCK cell. The series is classed as cell-based. The note with it: for IC50: PR/8, MDCK, 48 h, read-out: Inhibitory Concentration (IC50) which inhibited by 50% the denaturation of Virus No. 1 infested MDCK cell; for Quotient of minimum denaturation concentration divided by IC50, Virus No. 1: figures in brackets, MDCK cell, Influenza virus, 2880 min.

Series [7] in a line: in vitro. The note with it: human, hela-y cells.
Series [8] is described as follows: in vitro. The note with it: monkey, vero cells.
Series [9] has as its system Newcastle disease virus (NDV) Miyadera strain. In words: microbe, parasite or virus in culture. The series is classed as cell-based. Particulars: for IC50: avian paramyxovirus 1, 48 h, read-out: Inhibitory Concentration (IC50) which inhibited by 50% the denaturation of Virus No. 2 infested HeLa-Y cell; for Quotient of minimum denaturation concentration divided by IC50, Virus No. 2: figures in brackets, HeLa-Y cell, NDV, 2880 min.

The test system of series [10] is human premyelocytic leukemia cells (HL-60). In words: 50% inhibition of propagation of undifferentiated human premyelocytic leukemia HL-60 cells. The series is classed as cell-based. Particulars: 144 h, 6 days incubation, read-out: Activity of test compound to inhibit by 50% the undifferentiated propagation of HL-60 cells (IC50). The method, then: (§1) The human premyelocytic elukemia cells (HL-60 cell) are characterized by the ability to respond to pharmacological inducers of differentiation and can produce the normal granulocytes when they have been differentiated, as described in the "Blood" Vol. 54, No. 3, 713-733 (1979).
(§2) Thus, firstly the cell differentiation-inducing activity of the compound was assayed by the following procedure described in said "Blood". Namely, HL-60 cells were incubated by passing successively through RPMI 1640 media supplemented with 10% FCS (fetal calf serum), followed by adding the test compound at varying concentrations to aliquots of the culture of the HL-60 cells at the logarithmic phase of growth. The HL-60 cells thus incubated were further incubated in the presence of the test compound for 6 days and subsequently fixed to slide glasses. The fixed HL-60 cells were stained with May-Gruenwald-Giemsa's reagent and the morphology of the nuclei in the stained cells was examined to judge which of the cells has been differentiated into the normal granulocytes. Then, the number of the HL-60 cells which had propagated were counted.
As said "IC50 " concentration of the test compound was assumed such concentration of the test compound at which the counted number of the HL-60 cells having propagated was reduced by 50%, as compared to that counted in the control tests where the test compound was not used.

The test system is the same in series [11]. In words: NBT-reducing ability (differentiation) of HL-60 cells after treatment with test compound. The series is classed as cell-based. Particulars: 0.1% NBT, 37° C., 20 minutes. As to the method: as §1, §2
Secondly, the another aliquot of the culture of the HL-60 cells which were incubated in the above procedure in the presence of the test compound at its evaluated "IC50 " concentration was centrifuged to collect the cells, which were then diluted with a volume of RPMI 1640 medium supplemented with 10% FCS, to provide a given concentration of the cells. Subsequently, the cells which were diluted with said medium were added and mixed with 0.1% of NBT and then incubated at 37° C. for 20 minutes. The number of the cells which stained black color owing to the involved reduction of NBT and which could be judged to have the ability to reduce NBT was counted.

≈ marks a conversion by molar mass, not a printed value. Bounds are passed on as bounds.

Take `CC1(C)C2N(Cc3ccccc3)C(=O)N(Cc3ccccc3)C(=O)C2(F)C1(C)C` (stereo not drawn) [TI-66 Substance, 2,4-dibenzyl-6-fluoro-7,7,8,8-tetramethyl-2,4-diaza-bicyclo{4.2.0}octane-3,5-dione]: the MCC at 48 h in series [1] was 250 µg/mL; in [3], 15.6 µg/mL; in series [7] it was 15.6 µg/mL; in series [8], 62.5 µg/mL. Further, the IC50 in series [2] is above 25 µg/mL; in series [4] it was above 100 µg/mL; in series [5] it was 18.8 µg/mL (≈ 47.7 µM); in series [6] it was above 200 µg/mL; in series [9] it was above 25 µg/mL; in [10] it was 7 µg/mL (≈ 17.7 µM). Besides, the “Quotient of minimum denaturation concentration divided by IC50, Virus No. 4” value in series [2] was below 0.62. In [4], the “Quotient of minimum denaturation concentration divided by IC50, Virus No. 5” value is given as below 0.63. Besides, the “Quotient of minimum denaturation concentration divided by IC50, Virus No. 3” value in series [5] was determined as 0.83. Further, the “Quotient of minimum denaturation concentration divided by IC50, Virus No. 1” value in [6] was below 1.25. Moreover, in [9], the “Quotient of minimum denaturation concentration divided by IC50, Virus No. 2” value is reported as below 0.62. Further, the “Percent of the number of the cells showing the NBT-reducing ability after treatment with test compound at IC50 concentration” value in [11] is given as 65%.
On to `CCN1C(=O)[C@@H]2[C@H](N(CC)C1=O)C(C)(C)C2(C)C` (relative stereo) [TI-16 Substance, 2,4-diethyl-7,7,8,8-tetramethyl-cis-2,4-diaza-bicyclo{4.2.0}octane-3,5-dione], for which the MCC at 48 h in series [1] was determined as 1000 µg/mL; in [3], 500 µg/mL; in series [7], 250 µg/mL; in series [8], 500 µg/mL. Moreover, the IC50 in series [2] was above 250 µg/mL; in [4], 375 µg/mL (≈ 1490 µM); in [5], above 500 µg/mL; in [6] it was 375 µg/mL (≈ 1490 µM); in [9], above 250 µg/mL; in series [10] it was 17 µg/mL (≈ 67.4 µM). Further, the “Quotient of minimum denaturation concentration divided by IC50, Virus No. 4” value in [2] is listed as below 1.0. In addition, in series [4], the “Quotient of minimum denaturation concentration divided by IC50, Virus No. 5” value was found to be 1.33. Also, the “Quotient of minimum denaturation concentration divided by IC50, Virus No. 3” value in [5] was below 1.0. Further, the “Quotient of minimum denaturation concentration divided by IC50, Virus No. 1” value in series [6] came out at 2.67. Also, the “Quotient of minimum denaturation concentration divided by IC50, Virus No. 2” value in [9] is given as below 1.0. The “Percent of the number of the cells showing the NBT-reducing ability after treatment with test compound at IC50 concentration” value in series [11] is listed as 69%.
As to `CN1C(=O)NC2C(C)(C)C(C)(C)C2(F)C1=O` (stereo not drawn) [TI-61 Substance, 6-fluoro-4,7,7,8,8-pentamethyl-2,4-diaza-bicyclo{4.2.0}octane-3,5-dione], the MCC at 48 h was found to be 250 µg/mL in series [1], 125 µg/mL in series [3], 125 µg/mL in series [7] and 125 µg/mL in [8]. The IC50 in series [2] was above 125 µg/mL; in series [4], 93.8 µg/mL (≈ 411 µM); in series [5], 93.8 µg/mL (≈ 411 µM); in [6] it was 188 µg/mL (≈ 824 µM); in [9], above 125 µg/mL; in series [10], 39 µg/mL (≈ 171 µM). Also, the “Quotient of minimum denaturation concentration divided by IC50, Virus No. 4” value in [2] is recorded as below 1.00. Besides, in series [4], the “Quotient of minimum denaturation concentration divided by IC50, Virus No. 5” value worked out at 1.33. Moreover, in [5], the “Quotient of minimum denaturation concentration divided by IC50, Virus No. 3” value is 1.33. Further, the “Quotient of minimum denaturation concentration divided by IC50, Virus No. 1” value in series [6] was determined as 1.33. Moreover, the “Quotient of minimum denaturation concentration divided by IC50, Virus No. 2” value in series [9] was below 1.00. Further, the “Percent of the number of the cells showing the NBT-reducing ability after treatment with test compound at IC50 concentration” value in [11] came to 18%.
